Tests used:
[1] = system: CH58TF infected primary CD4+ T-cells; assay: HIV+ patient sera/plasma recognition of CH58TF infected primary CD4+ T-cells (flow cytometry cell-surface staining); format: cell-based, HIV-1; settings: Human immunodeficiency virus 1, T-cell, read-out: Fold Over DMSO (patient sera, n = 3)
Method: (§1) Cell-surface staining of primary CD4+ T cells from healthy HIV uninfected individuals or CEM-NKr cells is performed, as described in Prevost, “Influence of the Envelope gp120 Phe 43 Cavity on HIV-1 Sensitivity to Antibody-Dependent Cell-Mediated Cytotoxicity Responses,” 2017, J. Virol 91; Richard, “CD4 mimetics sensitize HIV-1-infected cells to ADCC,” 2015, Proc. Natl. Acad. Sci. USA, 112:E2687-2694; Richard, “Small CD4 Mimetics Prevent HIV-1 Uninfected Bystander CD4+ T Cell Killing Mediated by Antibody-dependent Cell-mediated Cytotoxicity,” 2016, EBioMedicine 3:122-134; Veillette, “The HIV-1 gp120 CD4-Bound Conformation Is Preferentially Targeted by Antibody-Dependent Cellular Cytotoxicity-Mediating Antibodies in Sera from HIV-1-Infected Individuals,” 2015, J. Virol., 89:545-551; Veillette, “Interaction with cellular CD4 exposes HIV-1 envelope epitopes targeted by antibody-dependent cell-mediated cytotoxicity,” 2014, J. Virol., 88:2633-2644; Richard, “Uninfected Bystander Cells Impact the Measurement of HIV-Specific Antibody-Dependent Cellular Cytotoxicity Responses,” 2018, MBio. 9(2): e00358-18; Richard, “BST-2 Expression Modulates Small CD4-Mimetic Sensitization of HIV-1-Infected Cells to Antibody-Dependent Cellular Cytotoxicity,” 2017, J. Virol. 91(11):e00219-17. Binding of HIV-1 infected cells by HIV+ sera (1:1000 dilution) or anti-Env Abs (such as 17b) is performed […] in vitro infection at 37° C. in presence of different concentrations of the MCG analogs or with equivalent volume of vehicle (DMSO). Cells infected with HIV-1 primary isolates are stained intracellularly for HIV-1 p24 using the Cytofix/Cytoperm Fixation/Permeabilization Kit (BD Biosciences, Mississauga, ON, Canada) and then fluorescent anti-p24 mAb (PE-anti-p24, clone KC57; Beckman Coulter/Immunotech, Hialeah, FL) (1:100 final concentration). The percentage of infected cells (p24^+ or GFP+ cells) is determined by gating the living cell population based on the viability dye staining. Samples are analyzed on an LSRII cytometer (BD Biosciences, Mississauga, ON, Canada) and data analysis is performed using FlowJo vX0.7 (Tree Star, Ashland, OR, USA).
HIV+ Patient Sera (n=3) Recognition of CH58TF Infected Primary CD4+ T-Cells
Staining with patient sera and 50 μM of compounds given as a fold change over DMSO (vehicle).
(§2) Briefly, Primary CD4 T cells isolated from PBMC were infected with HIV-1CH58TF for 48 hours. For cell surface staining, 5 μg/ml 17b (FIG. 15A) or 1:1000 diluted HIV+ plasma (n=15) (FIG. 15B) were used in the presence of the different MCG analogs (50 μM), (+)-BNM-III-170 or with an equivalent volume of vehicle (DMSO). An Alexa Fluor 647-conjugated anti-human IgG secondary Ab was then used for fluorescent labeling. For ADCC (FIG. 15C), infected cells were used as target cells in a FACS-based ADCC assay that measures the killing of infected (p24+ cells). See, Madani, 2016, J. Virol., 90:5031-5046. The assay determines susceptibility to ADCC mediated by a 1/1,000 dilution of plasma from 15 HIV-1-infected individuals in the presence of the different MCG analogs (50 μM), (+)-BNM-III-170 (50 μM) or with an equivalent volume of vehicle (DMSO). Correlation between cell-surface staining with HIV+ plasma and ADCC was calculated using the Spearman rank correlation (FIG. 15D).

[2] = system: CH58TF infected primary CD4+ T-cells; assay: Recognition of HIV-1 infected cells by 17b (flow cytometry cell-surface staining); format: cell-based; settings: Human immunodeficiency virus 1, T-cell, read-out: Fold Over DMSO (17b, n = 1)
Method: as §1, §2

[3] = system: HIV-1JR-FL EnvΔCT expressed at the surface of HOS cells; assay: Cell-based ELISA (CBE), 17b readout; settings: MCG analogs 50 μM; BNM-III-170 5 μM; 2G12 and DMSO normalized
Method: Detection of trimeric HIV-1 Env at the surface of HOS cells was performed by cell-based ELISA, as described in Desormeaux, “The highly conserved layer-3 component of the HIV-1 gp120 inner domain is critical for CD4-required conformational transitions,” J. Virol. 87:2549-2562; Alsahafi, “Effects of the I559P gp41 change on the conformation and function of the human immunodeficiency virus (HIV-1) membrane envelope glycoprotein trimer,” 2015, PLoS One 10:e0122111; and Veillette, “Conformational evaluation of HIV-1 trimeric envelope glycoproteins using a cell-based ELISA assay,” 2014, J. Vis. Exp., 91:51995. To enhance cell-surface expression of HIV-1 EnvRF a stop codon was introduced to replace the codon for Gly 711, truncating the cytoplasmic tail (ACT). Briefly, HOS cells were seeded in T-75 flasks (3×10^6 cells per flask) and transfected the next day with 22.5 μg of Env-expressing plasmids (wild-type and mutants S375W, S375T, H66A, A582T/L587A, etc) using the standard polyethylenimine (PEI, Polyscience Inc, PA, USA) transfection method. Twenty-four hours after transfection, cells were plated in 384-wells plates (2×10^4 cells per well). One day later, cells were washed twice with blocking buffer (10 mg/mL non-fat dry milk, 1.8 mM CaCl2), 1 mM MgCl2, 25 mM Tris, pH 7.5 and 140 mM NaCl) and then incubated for 30 minutes at room temperature with different concentrations of MCG analogs or equivalent volume of vehicle (DMSO). Cells were then incubated for an additional 1 h at room temperature with anti-HIV-1 Env monoclonal antibodies recognizing CD4-induced gp120 epitopes (17b, A32), CD4-binding site gp120 epitopes (VRC03, VRC01, F105, and b12), gp120 V3 glycans (19b, PGT126, PGT122, and 10.1074), gp120 outer domain (2G12), and gp120-gp41 interface (PGT151 and VRC34) epitopes. All ligands were diluted in blocking buffer. A horseradish peroxidase-conjugated antibody specific for the Fc region of human or mouse IgG (Pierce) was then incubated with the samples for 45 minutes at room temperature. For all conditions, cells were washed 5 times with blocking buffer and 5 times with washing buffer (1.8 mM CaCl2), 1 mM MgCl2, 25 mM Tris, pH 7.5 and 140 mM NaCl). HRP enzyme activity was determined after the addition of 20 μl per well of a 1:1 mix of Western Lightning oxidizing and luminol reagents (Perkin Elmer Life Sciences). Light emission was measured with an LB 941 TriStar luminometer (Berthold Technologies) and analysis with Graph Pad software.
The data of Table 2 is given as the fold over BNM-III-170 (5 μM) of Cell-Based ELISA with MCG Analogs (50 μM)—17b readout, 2G12 and DMSO normalized.
To identify molecules able to expose vulnerable Env epitopes, a cell-based ELISA (CBE) assay was adapted, capable of measuring conformational changes of membrane-bound trimeric Env as described in Veillette, 2014, J. Vis. Exp. doi:10.3791/51995:51995; Haim, 2011, PLoS Pathog 7:e1002101, into a high-throughput screening (HTS) platform (FIG. 10A). Briefly, the cytoplasmic-tail deleted HIV-1JR-FL Tier-2/3 Env was expressed on the surface of HOS cells in a 384-well-plate format. The cytoplasmic tail of Env was deleted to enhance Env expression at the cell surface and therefore enhance the sensitivity of the CBE assay. See, Veilette and Haim, 2009, PLoS Pathog 5:e100036. Small molecules or, as a positive control, soluble (sCD4) were added to expose the HIV-1JR-FL EnvΔCT epitope that can be recognized by the CD4i antibody 17b. See, Wyatt, 1995, J. Virol. 69:5723-5733; Rizzuto, 1998, Science 280:1949-1953.
17b binding was detected by a horseradish peroxidase-conjugated (HRP) second antibody, and HRP enzyme activity was measured by Western Lightning oxidizing and luminal reagents. 17b binding in the presence of sCD4 was set as the control (FIG. 10B, blue dots), small molecules that enhanced 17b binding above 25% of the one induced by sCD4 were retested in quadruplicate and only one molecule (UM0059920) was deemed a true positive (FIG. 10B, red dots). […]

SMILES	fold induction at 50 µM [1]	fold induction at 50 µM [2]	Fold over BNM-III-170 - 17b binding (±0.05) [3] [fold]
CCS(=O)(=O)N1CCC[C@H](C(=O)Nc2ccc(Br)c(Cl)c2)C1 [(S)-MCG-III-085-C06]	1.28	3.1	0.34
O=C(Nc1ccc(Cl)c(F)c1)[C@H]1CCCN(S(=O)(=O)c2ccccc2)C1 [(S)-MCG-III-085-D01]	5.95	6.4	0.45
O=C(Nc1ccc(F)c(Cl)c1)[C@H]1CCCN(S(=O)(=O)c2ccccc2)C1 [(S)-MCG-III-085-D02]	1.37	2.54	0.18
O=C(Nc1ccc(Cl)c(Cl)c1)[C@H]1CCCN(S(=O)(=O)c2ccccc2)C1 [(S)-MCG-III-085-D03]	2.03	4.87	0.20
O=C(Nc1ccc(F)c(F)c1)[C@H]1CCCN(S(=O)(=O)c2ccccc2)C1 [(S)-MCG-III-085-D04]	1.84	3.15	0.28
O=C(Nc1ccc(Cl)c(Br)c1)[C@H]1CCCN(S(=O)(=O)c2ccccc2)C1 [(S)-MCG-III-085-D05]	1.55	5.58	0.10
O=C(Nc1ccc(Br)c(Cl)c1)[C@H]1CCCN(S(=O)(=O)c2ccccc2)C1 [(S)-MCG-III-085-D06]	2	6.46	0.19
COc1ccc(S(=O)(=O)N2CCC[C@H](C(=O)Nc3ccc(Cl)c(F)c3)C2)cc1 [(S)-MCG-III-116-A05]	1.1	–	0.29
N#Cc1ccc(S(=O)(=O)N2CCC[C@H](C(=O)Nc3ccc(Cl)c(F)c3)C2)cc1 [(S)-MCG-III-116-A06]	1.15	–	0.31
CC(=O)Nc1ccc(S(=O)(=O)N2CCC[C@H](C(=O)Nc3ccc(Cl)c(F)c3)C2)cc1 [(S)-MCG-III-117]	1.89	–	0.21
O=C(Nc1ccc(Cl)c(F)c1)[C@H]1CCCN(S(=O)(=O)c2ccc(Br)cc2)C1 [(S)-MCG-III-128]	1.07	–	0.21
O=C(Nc1ccc(Cl)c(F)c1)[C@H]1CCCN(C(=O)Oc2ccccc2)C1 [(S)-MCG-III-188-A03]	4.61	3.11	0.47
O=C(Oc1ccc(Cl)c(F)c1)[C@H]1CCCN(S(=O)(=O)c2ccccc2)C1 [(S)-MCG-III-213-A03]	1.08	0.928	0.05
CS(=O)(=O)N1CCC(C(=O)Nc2ccc(Cl)c(F)c2)CC1 [MCG-III-101]	1.14	–	0.21
O=C(Nc1ccc(Cl)c(F)c1)C1CCN(S(=O)(=O)c2ccccc2)C1 (stereo not shown) [MCG-III-157-A03]	1.57	–	0.33
CCS(=O)(=O)N1CCCC(C(=O)Nc2ccc(Cl)c(F)c2)C1 (stereo not shown) [MCG-III-157-B02]	2.62	–	0.68
CS(=O)(=O)N1CCCC(NC(=O)c2ccc(Cl)c(F)c2)C1 (stereo not shown) [MCG-III-157-C01]	1.04	–	0.08
O=C(Nc1ccc(Cl)c(F)c1)C1CN(S(=O)(=O)c2ccccc2)CCO1 (stereo not shown) [MCG-III-211-A03]	1.7	2.64	0.28
CC(C)(C)OC(=O)N1CCN(S(=O)(=O)c2ccccc2)CC1C(=O)Nc1ccc(Cl)c(F)c1 (stereo not shown) [MCG-III-212-A03]	1.24	1.1	0.06
O=C(Nc1ccc(Cl)c(F)c1)C1Cc2ccccc2N(S(=O)(=O)c2ccccc2)C1 (stereo not shown) [MCG-III-214-A03]	1.05	0.911	0.09
Cn1cnc(S(=O)(=O)N2CC(C(=O)Nc3ccc(Cl)c(F)c3)Cc3ccccc32)c1 (stereo not shown) [MCG-III-214-A04]	0.924	1.15	0.18
